# Structures can show the parent of a compound that is named as a salt. Where two headings read alike, the source gives them in different places.
# Assays:
# [1] = test system: NCI-H292 lung cancer cells; experiment: FDA drug screening, complete media vs cholesterol-free media with simvastatin (TABLE 2); format: cell-based, human
# [2] = test system: NCI-H292 lung cancer cells; experiment: FDA drug screening, complete media vs cholesterol-free media without statin (TABLE 1); format: cell-based, human
# [3] = NCI-H292 cells, cholesterol-free media with simvastatin 0.04 μM, cell growth value in FDA drug screen
# [4] = NCI-H292 cells, complete media, cell growth value in FDA drug screen
# [5] = complete media minus cholesterol-free media + simvastatin, >0 enhanced anti-cancer activity, about 0 neutral, <0 antagonist
# [6] = Complete minus Cholesterol-free, >0 enhanced anti-cancer activity, about 0 neutral, <0 antagonist
# [7] = NCI-H292 cells, cholesterol-free media without statin
# [8] = NCI-H292 cells, FDA drug library screen, cholesterol-free media with simvastatin 0.04 μM
# [9] = NCI-H292 cells, FDA drug library screen, complete media
# [10] = complete media vs cholesterol-free media + simvastatin (0.04 μM), >0 enhanced anti-cancer activity, about 0 neutral, <0 antagonist
# [11] = Complete minus Cholesterol-free, greater than 0 enhanced anti-cancer activity, about 0 neutral, below 0 antagonists
# [12] = NCI-H292 cells in cholesterol-free media without statin
# [13] = NCI-H292 cells in complete media
# [14] = NCI-H292 cells, FDA library drug in cholesterol-free media with simvastatin 0.04 μM
# [15] = NCI-H292 cells, FDA library drug in complete media
# [16] = NCI-H292 cells, cholesterol-free media without statin, FDA drug library screen
# [17] = NCI-H292 cells, complete media, FDA drug library screen
# [18] = complete vs cholesterol-free media, >0 enhanced anti-cancer activity, about 0 neutral, <0 antagonist
# [19] = complete media vs cholesterol-free media + simvastatin (0.04 μM), […]
# [20] = Complete minus Cholesterol-free, […]
# [21] = NCI-H292 cells, FDA drug library screen, cholesterol-free media without statin
# [22] = NCI-H292 cells, cholesterol-free media with simvastatin 0.04 μM, FDA drug library screen (TABLE 2)
# [23] = NCI-H292 cells, complete media, FDA drug library screen (TABLE 2)
# [24] = complete media minus cholesterol-free media + simvastatin (0.04 μM), >0 enhanced anti-cancer activity, about 0 neutral, <0 antagonist
# [25] = NCI-H292 cells, drug in cholesterol-free media with simvastatin 0.04 μM
# [26] = NCI-H292 cells, drug in complete media
# [27] = complete media minus cholesterol-free media + simvastatin (0.04 μM), […]
compound,measurement,setting,value
Cc1ncc(C[n+]2csc(CCO)c2C)c(N)n1 [Thiamine (hydrochloride)],Cholesterol-free media + simvastatin (0.04 μM),[1]; [3],1.098
same,Complete Media,[1]; [4],1.117
same,Difference,[1]; [5],0.02
same,Difference,[2]; [6],−0.20
same,Cholesterol-free,[2]; [7],1.324
same,Complete,"[2]; NCI-H292 cells, complete media",1.125
Cc1ccccc1N1C(=O)c2cc(S(N)(=O)=O)c(Cl)cc2NC1C (centres unmarked) [Metolazone],Cholesterol-free media + simvastatin (0.04 μM),[1]; [8],1.129
same,Complete Media,[1]; [9],0.9754
same,Difference,[1]; [10],−0.15
same,Difference,[2]; [11],−0.62
same,Cholesterol-free,[2]; [12],1.469
same,Complete,[2]; [13],0.8441
Cc1ccc(Sc2ccccc2N2CCNCC2)c(C)c1 [Vortioxetine (hydrobromide)],Cholesterol-free media + simvastatin (0.04 μM),[1]; [14],1.363
same,Complete Media,[1]; [15],1.083
same,Difference,[1]; [10],−0.28
same,Difference,[2]; [6],−0.30
same,Cholesterol-free,[2]; [7],0.7215
same,Complete,"[2]; NCI-H292 cells, complete media",0.4184
Cc1cc(=O)oc2cc(O)ccc12 [4-Methylumbelliferone],Cholesterol-free media + simvastatin (0.04 μM),[1]; [8],1.129
same,Complete Media,[1]; [9],1.057
same,Difference,[1]; [10],−0.07
same,Cholesterol-free,[2]; [16],0.6739
same,Complete,[2]; [17],1.119
same,Difference,[2]; [18],0.45
FC(F)(F)C(F)(F)C(F)(F)C(F)(F)C(F)(F)C(F)(F)C(F)(F)C(F)(F)Br [Perflubron],Cholesterol-free media + simvastatin (0.04 μM),[1]; [8],0.901
same,Complete Media,[1]; [9],1.248
same,Difference,[1]; [5],0.35
same,Difference,[2]; [11],−0.50
same,Cholesterol-free,[2]; [12],1.905
same,Complete,[2]; [13],1.408
CC(=O)O.CN1C(=O)C[C@@H](C(=O)N[C@@H](Cc2cnc[nH]2)C(=O)N2CCC[C@H]2C(N)=O)NC1=O [Taltirelin (acetate)],Cholesterol-free media + simvastatin (0.04 μM),[1]; [8],1.154
same,Complete Media,[1]; [9],1.062
same,Difference,[1]; [19],−0.09
same,Difference,[2]; [20],−0.12
same,Cholesterol-free,[2]; [21],1.092
same,Complete,[2]; [9],0.9679
CN(Cc1cnc2nc(N)nc(N)c2n1)c1ccc(C(=O)N[C@@H](CCC(=O)[O-])C(=O)[O-])cc1.[Na+].[Na+] [Methotrexate (disodium)],Cholesterol-free media + simvastatin (0.04 μM),[1]; [22],0.2727
same,Complete Media,[1]; [23],0.2318
same,Difference,[1]; [24],−0.04
same,Difference,[2]; [6],−0.05
same,Cholesterol-free,[2]; [16],0.06701
same,Complete,[2]; [17],0.01682
C[C@H]1[C@@H](O)O[C@@H]2O[C@@]3(C)CC[C@H]4[C@H](C)CC[C@@H]1[C@@]24OO3 [Dihydroartemisinin],Cholesterol-free media + simvastatin (0.04 μM),[1]; [25],0.9193
same,Complete Media,[1]; [26],0.7262
same,Difference,[1]; [10],−0.19
same,Difference,[2]; [6],0.05
same,Cholesterol-free,[2]; [16],0.5972
same,Complete,[2]; [17],0.6489
C[C@H](CSC(=O)c1ccccc1)C(=O)N1C[C@@H](Sc2ccccc2)C[C@H]1C(=O)O [Zofenopril (calcium)],Cholesterol-free media + simvastatin (0.04 μM),[1]; [22],0.8443
same,Complete Media,[1]; [23],0.8399
same,Difference,[1]; [27],0.00
same,Difference,[2]; [20],−0.03
same,Cholesterol-free,[2]; [16],1.281
same,Complete,[2]; [17],1.25
C[C@H]1COc2c(N3CCN(C)CC3)c(F)cc3c(=O)c(C(=O)O)cn1c23 [Levofloxacin],Cholesterol-free media + simvastatin (0.04 μM),[1]; [25],1.136
same,Complete Media,[1]; [26],0.944
same,Difference,[1]; [10],−0.19
same,Difference,[2]; [6],−0.23
same,Cholesterol-free,[2]; [7],1.162
same,Complete,"[2]; NCI-H292 cells, complete media",0.933
Atracurium (besylate),Cholesterol-free media + simvastatin (0.04 μM),[1]; [25],1.369
same,Difference,[1]; [10],−0.26
same,Difference,[2]; [11],−0.49
same,Cholesterol-free,[2]; [12],1.419
same,Complete,[2]; [13],0.9276
NC1=NCC2c3ccccc3Cc3ccccc3N12 (centres unmarked) [Epinastine],Cholesterol-free media + simvastatin (0.04 μM),[1],0.9831
same,Complete Media,[1],0.9656
same,Difference,[1],−0.02
same,Cholesterol-free,[2],0.9643
same,Complete,[2],0.9792
same,Difference,[2],0.01
NCCCC[C@H](N)C(=O)O [L-Lysine],Cholesterol-free media + simvastatin (0.04 μM),[1]; [14],1.021
same,Complete Media,[1]; [15],0.7295
same,Difference,[1]; [19],−0.29
same,Difference,[2]; [20],−0.24
same,Cholesterol-free,[2]; [7],1.096
same,Complete,"[2]; NCI-H292 cells, complete media",0.8592
C=C1C[C@H]2[C@@H]3CCC4=CC(=O)CC[C@@H]4[C@H]3CC[C@]2(C)[C@@]1(OC(C)=O)C(C)=O [Nestoron],Cholesterol-free media + simvastatin (0.04 μM),[1]; [22],0.9628
same,Complete Media,[1]; [23],0.9132
same,Difference,[1]; [27],−0.05
same,Cholesterol-free,[2]; [7],1.481
same,Complete,"[2]; NCI-H292 cells, complete media",1.095
same,Difference,"[2]; complete vs cholesterol-free media, […]",−0.39
CCOCCn1c(N2CCCN(C)CC2)nc2ccccc21 [Emedastine],Cholesterol-free media + simvastatin (0.04 μM),[1]; [3],0.8891
same,Complete Media,[1]; [4],0.9093
same,Difference,[1]; [5],0.02
same,Difference,[2]; [6],−0.27
same,Cholesterol-free,[2]; [7],0.9896
same,Complete,"[2]; NCI-H292 cells, complete media",0.7182
CCn1cc(C(=O)O)c(=O)c2cc(F)c(N3CCNCC3)nc21 [Enoxacin (hydrate)],Cholesterol-free media + simvastatin (0.04 μM),[1]; [22],1.166
same,Complete Media,[1]; [23],1.164
same,Difference,[1]; [24],0.00
same,Difference,[2]; [11],−0.49
same,Cholesterol-free,[2]; [12],1.532
same,Complete,[2]; [13],1.045
NC(=O)c1ncn([C@@H]2O[C@H](CO)[C@@H](O)[C@H]2O)c1O [Mizoribine],Cholesterol-free media + simvastatin (0.04 μM),[1]; [8],1.118
same,Complete Media,[1]; [9],0.9745
same,Difference,[1]; [10],−0.14
same,Difference,"[2]; Complete minus Cholesterol-free, greater than 0 enhanced anti-cancer activity, about 0 neutral, below 0 antagonist",−0.10
same,Cholesterol-free,[2]; [21],0.879
same,Complete,[2]; [9],0.7795
CC[N+](C)(C)c1cccc(O)c1.[Cl-] [Edrophonium (chloride)],Cholesterol-free media + simvastatin (0.04 μM),"[1]; NCI-H292 cells, cholesterol-free media with simvastatin 0.04 μM, […]",1.155
same,Complete Media,"[1]; NCI-H292 cells, complete media, […]",1.199
same,Difference,"[1]; complete media minus cholesterol-free media + simvastatin, […]",0.04
same,Difference,[2]; [20],−0.15
same,Cholesterol-free,[2]; [21],1.134
same,Complete,[2]; [9],0.9821
CCN(CC)CC(=O)Nc1c(C)cccc1C [Lidocaine (hydrochloride)],Cholesterol-free media + simvastatin (0.04 μM),[1]; [22],0.8862
same,Complete Media,[1]; [23],0.8646
same,Difference,[1]; [24],−0.02
same,Difference,[2]; [6],−0.22
same,Cholesterol-free,[2]; [7],1.21
same,Complete,"[2]; NCI-H292 cells, complete media",0.9883
CCCCOc1cc(C(=O)OCCN(CC)CC)ccc1N [Oxybuprocaine hydrochloride],Cholesterol-free media + simvastatin (0.04 μM),[1]; [8],0.4662
same,Complete Media,[1]; [9],1.022
same,Difference,[1]; [5],0.56
same,Cholesterol-free,[2]; [16],0.7998
same,Complete,[2]; [17],0.9021
same,Difference,[2]; [18],0.10
NC(=O)c1cccc2cn(-c3ccc([C@@H]4CCCNC4)cc3)nc12 [Niraparib],Cholesterol-free media + simvastatin (0.04 μM),[1]; [22],1.191
same,Complete Media,[1]; [23],1.193
same,Difference,[1]; [24],0.00
same,Difference,[2]; [6],−0.30
same,Cholesterol-free,[2]; [7],1.29
same,Complete,"[2]; NCI-H292 cells, complete media",0.9917
Cc1ccc(NC(=O)c2ccc(CN3CCN(C)CC3)cc2)cc1Nc1nccc(-c2cccnc2)n1 [Imatinib],Cholesterol-free media + simvastatin (0.04 μM),[1]; [22],1.214
same,Complete Media,[1]; [23],1.199
same,Difference,[1]; [24],−0.01
same,Cholesterol-free,[2]; [7],1.28
same,Complete,"[2]; NCI-H292 cells, complete media",0.9175
same,Difference,"[2]; complete vs cholesterol-free media, greater than 0 enhanced anti-cancer activity, about 0 neutral, below 0 antagonists",−0.36

# Reference: patent US20250144067A1, “PERSONALIZED STARVATION THERAPY FOR CANCER” (Faeth Therapeutics, Inc., priority 2021, published 2025)
